Test results taken from patent publication US6329399A, “Antifungal amine derivatives and processing for producing the same” (Pola Chemical Industries, Inc., priority 1997, dated 2001).
≈ marks a conversion by molar mass, not a printed value.

Legend:
Assay in all cases: Measurement of antimycotic activity (minimum inhibitory concentration, MIC) against dermatophyte
Format in all cases: cell-based
M. canis TIMM0760 = conditions: Microsporum canis, 168 h, Sabouraud's agar pH=5.9, 27° C., 1 week
Description: (§1) The antimycotic activity of the compounds of the invention against dermatophyte was examined.
(§2) More particularly, the test dermatophyte strains shown in Tables 9 and 10 below were cultivated in advance on a slant culture of Sabouraud's agar medium (manufactured by Nissui Seiyaku Co., Ltd.; 1.0% peptone, 4.0% glucose, 1.5% agar, pH=5.9) at 27° C. for 2 weeks to allow them to grow conidia sufficiently. Then, sterilized physiological saline containing 0.05 weight/volume % of Tween 80 was added to the culture and while rubbing the surface of the culture with a platinum loop, the conidia were separated and caused to float. Using a hemocytometer, the filtrate was adjusted with sterilized physiological saline such that the concentration of conidia was 10^6 cells/ml, which was used as a test microbe liquid.
(§3) On the other hand, PR compounds and AD compounds (test drugs) of the present invention obtained in the examples described above were taken each in an amount of 10 mg, and 1 ml of dimethyl sulfoxide was added thereto to form a stock solution, of which 500 μl was taken and 500 μl of dimethyl sulfoxide was added thereto to prepare a 2-fold dilution. The same operation was repeated to prepare 13-stages ranging from 10 to 0.0025 mg/ml (final concentration of test system 100 to 0.025 μg/ml) of diluted drug solutions. Solutions with various diluted concentrations of test drug were each dispensed in sterilized petri dish with an amount of 100 μl. Then, 10 ml of sterile-dissolved Sabouraud's agar medium (1.0% peptone, 4.0% glucose, 1.5% agar, pH=5.9) was added, well mixed and solidified. Then, 5 μl of the test microbe solution previously adjusted were added using a microplanter, respectively.
(§4) The results are shown in Table 9 for PR compounds and in Table 10 for AD compounds, respectively. In the column of Compound No. in Tables 9 and 10, "PR-" or "AD-" were omitted.

M. gypseum IF08231 = conditions: Nannizzia gypsea, 168 h, Sabouraud's agar pH=5.9, 27° C., 1 week
Description: as §1, §2, §3, §4

[1] = test system: T. mentagrophytes IF05811; conditions: Trichophyton mentagrophytes, 168 h, Sabouraud's agar pH=5.9, 27° C., 1 week
Description: as §1, §2, §3, §4

[2] = test system: T. mentagrophytes IF07552; conditions: Trichophyton mentagrophytes, 168 h, Sabouraud's agar pH=5.9, 27° C., 1 week
Description: as §1, §2, §3, §4

[3] = test system: T. mentagrophytes TIMM1177; conditions: Trichophyton mentagrophytes, 168 h, Sabouraud's agar pH=5.9, 27° C., 1 week
Description: as §1, §2, §3, §4

[4] = test system: T. mentagrophytes TIMM1189; conditions: Trichophyton mentagrophytes, 168 h, Sabouraud's agar pH=5.9, 27° C., 1 week
Description: as §1, §2, §3, §4

T. rubrum IF05808 = conditions: Trichophyton rubrum, 168 h, Sabouraud's agar pH=5.9, 27° C., 1 week
Description: as §1, §2, §3, §4

T. rubrum IF09185 = conditions: Trichophyton rubrum, 168 h, Sabouraud's agar pH=5.9, 27° C., 1 week
Description: as §1, §2, §3, §4

T. violaceum TIMM1264 = conditions: Trichophyton violaceum, 168 h, Sabouraud's agar pH=5.9, 27° C., 1 week
Description: as §1, §2, §3, §4

SMILES | MIC (M. canis TIMM0760) [µg/mL] | MIC (M. gypseum IF08231) [µg/mL] | MIC [1] [µg/mL] | MIC [2] [µg/mL] | MIC [3] [µg/mL] | MIC [4] [µg/mL] | MIC (T. rubrum IF05808) [µg/mL] | MIC (T. rubrum IF09185) [µg/mL] | MIC (T. violaceum TIMM1264) [µg/mL]
C=C(CN(C)Cc1ccc(C(C)(C)C)cc1)c1cccc(C#N)c1 [Compound AD-052, 3-[1-{N-(4-tert-butylbenzyl)-N-methylamino}methyl]vinylbenzonitrile] | 0.39 (≈ 1.22 µM) | 0.39 (≈ 1.22 µM) | 0.39 (≈ 1.22 µM) | 0.78 (≈ 2.45 µM) | 0.78 (≈ 2.45 µM) | 0.78 (≈ 2.45 µM) | 0.39 (≈ 1.22 µM) | 0.39 (≈ 1.22 µM) | 1.56 (≈ 4.9 µM)
C=C(CN(C)C/C=C/C#CC(C)(C)C)c1ccccc1Br [Compound PR-1505, trans-N-(6,6-dimethyl-2-hepten-4-ynyl)-N-methyl-[2-(2-bromophenyl)-2-propenyl]amine] | 0.39 (≈ 1.13 µM) | 6.25 (≈ 18 µM) | 1.56 (≈ 4.5 µM) | 1.56 (≈ 4.5 µM) | 1.56 (≈ 4.5 µM) | 1.56 (≈ 4.5 µM) | 0.39 (≈ 1.13 µM) | 1.56 (≈ 4.5 µM) | 0.39 (≈ 1.13 µM)
C=C(CN(C)Cc1ccc(C(C)(C)C)cc1)c1ccccc1[N+](=O)[O-] [Compound AD-033, N-(4-tert-butylbenzyl)-N-methyl-[2-(2-nitrophenyl)-2-propenyl]amine] | 6.25 (≈ 18.5 µM) | 12.5 (≈ 36.9 µM) | 6.25 (≈ 18.5 µM) | 6.25 (≈ 18.5 µM) | 12.5 (≈ 36.9 µM) | 12.5 (≈ 36.9 µM) | 3.12 (≈ 9.22 µM) | 3.12 (≈ 9.22 µM) | 12.5 (≈ 36.9 µM)
C=C(CN(C)Cc1ccc(C(C)(C)C)cc1)c1ccccc1C [Compound AD-028, N-(4-tert-butylbenzyl)-N-methyl-[2-(2-methylphenyl)-2-propenyl]amine] | 3.12 (≈ 10.1 µM) | 6.25 (≈ 20.3 µM) | 6.25 (≈ 20.3 µM) | 3.12 (≈ 10.1 µM) | 6.25 (≈ 20.3 µM) | 6.25 (≈ 20.3 µM) | 3.12 (≈ 10.1 µM) | 3.12 (≈ 10.1 µM) | 6.25 (≈ 20.3 µM)
CN(CC(=O)c1ccccc1O)Cc1ccc(C(C)(C)C)cc1 [Compound AD-057, 2-[N-(4-tert-butylbenzyl)-N-methylamino]-2'-hydroxyacetophenone] | 6.25 (≈ 20.1 µM) | 12.5 (≈ 40.1 µM) | 12.5 (≈ 40.1 µM) | 12.5 (≈ 40.1 µM) | 12.5 (≈ 40.1 µM) | 12.5 (≈ 40.1 µM) | 3.12 (≈ 10 µM) | 6.25 (≈ 20.1 µM) | 6.25 (≈ 20.1 µM)
C=C(CN(C)C/C=C/C#CC(C)(C)C)c1ccccc1N [Compound PR-1672, Trans-N-(6,6-dimethyl-2-hepten-4-ynyl)-N-methyl-[2-(2-aminophenyl)-2-propenyl]amine] | 1.56 (≈ 5.52 µM) | 3.12 (≈ 11 µM) | 3.12 (≈ 11 µM) | 1.56 (≈ 5.52 µM) | 3.12 (≈ 11 µM) | 3.12 (≈ 11 µM) | 0.78 (≈ 2.76 µM) | 1.56 (≈ 5.52 µM) | 3.12 (≈ 11 µM)
C=C(CN(C)C/C=C/C#CC(C)(C)C)c1ccccc1 [Compound PR-1258, Trans-N-(6,6-dimethyl-2-hepten-4-ynyl)-N-methyl-2-phenyl-2-propenylamine] | 0.39 (≈ 1.46 µM) | 1.56 (≈ 5.83 µM) | 1.56 (≈ 5.83 µM) | 0.78 (≈ 2.92 µM) | 0.78 (≈ 2.92 µM) | 0.78 (≈ 2.92 µM) | 0.39 (≈ 1.46 µM) | 0.78 (≈ 2.92 µM) | 1.56 (≈ 5.83 µM)
C=C(CN(C)C/C=C/C#CC(C)(C)C)c1cc(F)cc(F)c1 [Compound PR-2159, Trans-N-(6,6-dimethyl-2-hepten-4-ynyl)-N-methyl-[2-(3,5-difluorophenyl)-2-propenyl]amine] | 0.05 (≈ 0.165 µM) | 0.2 (≈ 0.659 µM) | 0.2 (≈ 0.659 µM) | 0.2 (≈ 0.659 µM) | 0.2 (≈ 0.659 µM) | 0.1 (≈ 0.33 µM) | 0.1 (≈ 0.33 µM) | 0.1 (≈ 0.33 µM) | 0.2 (≈ 0.659 µM)
C=C(CN(C)C/C=C/C#CC(C)(C)C)c1ccccc1C [Compound PR-1533, trans-N-(6,6-dimethyl-2-hepten-4-ynyl)-N-methyl-[2-(o-tolyl)-2-propenyl]amine] | 0.39 (≈ 1.39 µM) | 6.25 (≈ 22.2 µM) | 0.39 (≈ 1.39 µM) | 1.56 (≈ 5.54 µM) | 0.39 (≈ 1.39 µM) | 0.39 (≈ 1.39 µM) | 0.39 (≈ 1.39 µM) | 0.39 (≈ 1.39 µM) | 0.39 (≈ 1.39 µM)
C=C(CN(C)C/C=C/C#CC(C)(C)C)c1ccc(O)cc1 [Compound PR-1606, Trans-N-(6,6-dimethyl-2-hepten-4-ynyl)-N-methyl-[2-(4-hydroxyphenyl)-2-propenyl]amine] | 25 (≈ 88.2 µM) | 25 (≈ 88.2 µM) | 25 (≈ 88.2 µM) | 50 (≈ 176 µM) | 50 (≈ 176 µM) | 50 (≈ 176 µM) | 25 (≈ 88.2 µM) | 50 (≈ 176 µM) | 50 (≈ 176 µM)
C=C(CN(C)C/C=C/C#CC(C)(C)C)c1cccc(C)c1 [Compound PR-1540, trans-N-(6,6-dimethyl-2-hepten-4-ynyl)-N-methyl-[2-(m-tolyl)-2-propenyl]amine] | 0.1 (≈ 0.355 µM) | 1.56 (≈ 5.54 µM) | 0.1 (≈ 0.355 µM) | 0.39 (≈ 1.39 µM) | 0.39 (≈ 1.39 µM) | 0.1 (≈ 0.355 µM) | 0.1 (≈ 0.355 µM) | 0.1 (≈ 0.355 µM) | 0.1 (≈ 0.355 µM)
C=C(CN(C)C/C=C/C#CC(C)(C)C)c1ccc(F)cc1 [Compound PR-1430, trans-N-(6,6-dimethyl-2-hepten-4-ynyl)-N-methyl-[2-(4-fluorophenyl)-2-propenyl]amine] | 0.39 (≈ 1.37 µM) | 6.25 (≈ 21.9 µM) | 0.39 (≈ 1.37 µM) | 0.39 (≈ 1.37 µM) | 0.39 (≈ 1.37 µM) | 0.39 (≈ 1.37 µM) | 0.39 (≈ 1.37 µM) | 0.39 (≈ 1.37 µM) | 0.39 (≈ 1.37 µM)
C=C(CN(C)Cc1ccc(C(C)(C)C)cc1)c1ccc(C)c(C)c1 [Compound AD-043, N-(4-tert-butylbenzyl)-N-methyl-[2-(3,4-dimethylphenyl)-2-propenyl]amine] | 0.78 (≈ 2.43 µM) | 1.56 (≈ 4.85 µM) | 1.56 (≈ 4.85 µM) | 1.56 (≈ 4.85 µM) | 1.56 (≈ 4.85 µM) | 1.56 (≈ 4.85 µM) | 0.2 (≈ 0.622 µM) | 0.78 (≈ 2.43 µM) | 1.56 (≈ 4.85 µM)
C=C(CN(C)C/C=C/C#CC(C)(C)C)c1cccc(Br)c1 [Compound PR-1484, Trans-N-(6,6-dimethyl-2-hepten-4-ynyl)-N-methyl-[2-(3-bromophenyl)-2-propenyl]amine] | 0.1 (≈ 0.289 µM) | 0.39 (≈ 1.13 µM) | 0.1 (≈ 0.289 µM) | 0.2 (≈ 0.578 µM) | 0.1 (≈ 0.289 µM) | 0.39 (≈ 1.13 µM) | 0.1 (≈ 0.289 µM) | 0.1 (≈ 0.289 µM) | 0.1 (≈ 0.289 µM)
C=C(CN(C)C/C=C/C#CC(C)(C)C)c1ccccc1F [Compound PR-1491, Trans-N-(6,6-dimethyl-2-hepten-4-ynyl)-N-methyl-[2-(2-fluorophenyl)-2-propenyl]amine] | 0.1 (≈ 0.35 µM) | 6.25 (≈ 21.9 µM) | 0.39 (≈ 1.37 µM) | 0.39 (≈ 1.37 µM) | 0.39 (≈ 1.37 µM) | 0.39 (≈ 1.37 µM) | 0.1 (≈ 0.35 µM) | 0.39 (≈ 1.37 µM) | 0.39 (≈ 1.37 µM)
